Source: PubChem BioAssay AID1845212 (Molecular Pharmacology Branch, DTP, NCI, 2023)
Active and inactive are the calls of the source. How the source made its calls: active means viability on the fitted dose curve at most 10% of control; inactive means the rest.

System: NCI-H719 tumor spheroids, viability
Assay: Anticancer human tumor NCI-H719 cell line growth inhibition;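 on IC50: spheroids exposed to compounds for seven days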;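 on viability, T/C: spheroids exposed to compounds for seven days; percent viability relative to DMSO vehicle control as 100%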
Details: spheroids with HUVEC and MSC; for IC50: curve of first compound; for viability, T/C: stronger effect = lower value
Summary of the method: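 Complex tumor spheroids combined malignant cells with endothelial cells and mesenchymal stem cells. DNA-damaging drugs and DNA repair inhibitors were tested alone and in combination, at half-log dilutions down from clinical Cmax (top 10 microM if Cmax unknown), 0.25% DMSO final.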

[1] = second compound 1 µM, first compound 0.0316 µM
[2] = second compound 1 µM, first compound 0.1 µM
[3] = second compound 1 µM, first compound 0.316 µM
[4] = second compound 1 µM, first compound 1 µM
[5] = second compound 1 µM, first compound 3.16 µM
[6] = second compound 1 µM, first compound 10 µM
[7] = second compound 3.16 µM, first compound 0.0316 µM
[8] = second compound 3.16 µM, first compound 0.1 µM
[9] = second compound 3.16 µM, first compound 0.316 µM
[10] = second compound 3.16 µM, first compound 1 µM
[11] = second compound 3.16 µM, first compound 3.16 µM
[12] = second compound 3.16 µM, first compound 10 µM
[13] = second compound 10 µM, first compound 0.0316 µM
[14] = second compound 10 µM, first compound 0.1 µM
[15] = second compound 10 µM, first compound 0.316 µM
[16] = second compound 10 µM, first compound 1 µM
[17] = second compound 10 µM, first compound 3.16 µM
[18] = second compound 10 µM, first compound 10 µM
[19] = second compound 31.6 µM, first compound 0.0316 µM
[20] = second compound 31.6 µM, first compound 0.1 µM
[21] = second compound 31.6 µM, first compound 0.316 µM
[22] = second compound 31.6 µM, first compound 1 µM
[23] = second compound 31.6 µM, first compound 3.16 µM
[24] = second compound 31.6 µM, first compound 10 µM
[25] = second compound 100 µM, first compound 0.0316 µM
[26] = second compound 100 µM, first compound 0.1 µM
[27] = second compound 100 µM, first compound 0.316 µM
[28] = second compound 100 µM, first compound 1 µM
[29] = second compound 100 µM, first compound 3.16 µM
[30] = second compound 100 µM, first compound 10 µM

| SMILES | IC50 (second compound 1 µM) [nM] | IC50 (second compound 3.16 µM) [nM] | IC50 (second compound 10 µM) [nM] | IC50 (second compound 31.6 µM) [nM] | IC50 (second compound 100 µM) [nM] | viability, T/C [1] [%] | viability, T/C [2] [%] | viability, T/C [4] [%] | viability, T/C [5] [%] | viability, T/C [6] [%] | viability, T/C [7] [%] | viability, T/C [8] [%] | viability, T/C [9] [%] | viability, T/C [10] [%] | viability, T/C [11] [%] | viability, T/C [12] [%] | viability, T/C [13] [%] | viability, T/C [14] [%] | viability, T/C [15] [%] | viability, T/C [16] [%] | other results |
| --- | --- | --- | --- | --- | --- | --- | --- | --- | --- | --- | --- | --- | --- | --- | --- | --- | --- | --- | --- | --- | --- |
| CC(C)n1c(=O)n(C)c2cnc3cc(F)c(-c4ccc(OCCCN5CCCCC5)nc4)cc3c21 + Cn1nnc2c(C(N)=O)ncn2c1=O | > 10000 | > 10000 | > 10000 | > 10000 | > 10000 | 94.3 | 107 | 79.8 | 139 | 95.2 | 89.4 | 109 | 111 | 87.8 | 148 | 116 | 109 | 104 | 103 | 89.2 | outcome [3]: inactive; viability, T/C [17]: 141%; viability, T/C [18]: 112%; viability, T/C [19]: 119%; viability, T/C [20]: 118%; viability, T/C [21]: 114%; viability, T/C [22]: 97.2%; viability, T/C [23]: 110%; viability, T/C [24]: 94.4%; viability, T/C [25]: 104%; viability, T/C [26]: 86.8%; viability, T/C [27]: 83.7%; viability, T/C [28]: 74.6%; viability, T/C [29]: 82.5%; viability, T/C [30]: 68.5% |
| CC1COCCN1c1cc(-c2ccnn2C)c2ccnc(-c3ccn[nH]3)c2n1 (stereo not given) + Cn1nnc2c(C(N)=O)ncn2c1=O | 81.1 | 60.2 | 63.8 | 38.9 | < 31.6 | 60.4 | 47.4 | 13.5 | 7.33 | 9.3 | 61.2 | 40.7 | 23.1 | 10.2 | 7.62 | 9.51 | 63.1 | 41 | 23.3 | 9.97 | viability, T/C [3]: 27.2%; viability, T/C [17]: 7.59%; viability, T/C [18]: 8.83%; viability, T/C [19]: 54.5%; viability, T/C [20]: 30.4%; viability, T/C [21]: 18.1%; viability, T/C [22]: 8.01%; viability, T/C [23]: 6.53%; viability, T/C [24]: 9.03%; viability, T/C [25]: 26.8%; viability, T/C [26]: 14.7%; viability, T/C [27]: 9.58%; viability, T/C [28]: 5.42%; viability, T/C [29]: 17.8%; viability, T/C [30]: 7.51% |
| COc1cc(C)[nH]c(=O)c1CN1CCc2c(Cl)cc(C(OC)C3COC3)c(Cl)c2C1=O (stereo not given) + Cn1nnc2c(C(N)=O)ncn2c1=O | > 10000 | > 10000 | > 10000 | > 10000 | > 10000 | 101 | 101 | 111 | 108 | 103 | 103 | 108 | 119 | 117 | 112 | 110 | 110 | 110 | 122 | 121 | outcome [3]: inactive; viability, T/C [17]: 125%; viability, T/C [18]: 118%; viability, T/C [19]: 118%; viability, T/C [20]: 111%; viability, T/C [21]: 111%; viability, T/C [22]: 125%; viability, T/C [23]: 118%; viability, T/C [24]: 119%; viability, T/C [25]: 109%; viability, T/C [26]: 101%; viability, T/C [27]: 99.7%; viability, T/C [28]: 109%; viability, T/C [29]: 115%; viability, T/C [30]: 109% |
| COc1ccc([C@@H](O)c2cc(-c3ncnc4cc(N5CCOCC5)ccc34)c(F)cc2Cl)nn1 + Cn1nnc2c(C(N)=O)ncn2c1=O | 797 | 873 | 1100 | 810 | 506 | 80.1 | 78.5 | 34.6 | 46.3 | 49.5 | 102 | 83.7 | 77.8 | 40.8 | 45.6 | 52.4 | 99.2 | 94.1 | 65.6 | 50.8 | viability, T/C [3]: 76.6%; viability, T/C [17]: 48.9%; viability, T/C [18]: 33.8%; viability, T/C [19]: 99.3%; viability, T/C [20]: 101%; viability, T/C [21]: 68.1%; viability, T/C [22]: 46.7%; viability, T/C [23]: 30.4%; viability, T/C [24]: 20.8%; viability, T/C [25]: 89.9%; viability, T/C [26]: 81%; viability, T/C [27]: 55%; viability, T/C [28]: 36.5%; viability, T/C [29]: 34%; viability, T/C [30]: 17.3% |
